Experiment [1] has as its system testosterone-enhanced ventral prostate and seminal vesicle weights in castrated male Sprague Dawley rats. Kind of experiment: Ventral Prostate and Seminal Vesicle Weight In Vivo Assay. Further details: species or system rat. The following applies: immature castrated rats; once daily for five days, usually orally at 40 mg/kg, with testosterone propionate 2 mg/kg s.c. An outline of the steps:
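Immature (~50 g) castrated Sprague Dawley rats dosed once daily for five days with compound (usually oral, 40 mg/kg, cyclodextrin or methylcellulose vehicle) plus testosterone propionate 2 mg/kg s.c. Wet ventral prostate and seminal vesicle weights taken on day six; activity judged by prostate weight or body-weight-adjusted % inhibition.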

Experiment [2] deals with T1, androgen receptor (adenovirus AdEasy+rAR in COS-7 cells) (Rattus norvegicus, UniProt P15207).
T1 construct: expressed in transfected cells
T1 sequence (P15207 1-902): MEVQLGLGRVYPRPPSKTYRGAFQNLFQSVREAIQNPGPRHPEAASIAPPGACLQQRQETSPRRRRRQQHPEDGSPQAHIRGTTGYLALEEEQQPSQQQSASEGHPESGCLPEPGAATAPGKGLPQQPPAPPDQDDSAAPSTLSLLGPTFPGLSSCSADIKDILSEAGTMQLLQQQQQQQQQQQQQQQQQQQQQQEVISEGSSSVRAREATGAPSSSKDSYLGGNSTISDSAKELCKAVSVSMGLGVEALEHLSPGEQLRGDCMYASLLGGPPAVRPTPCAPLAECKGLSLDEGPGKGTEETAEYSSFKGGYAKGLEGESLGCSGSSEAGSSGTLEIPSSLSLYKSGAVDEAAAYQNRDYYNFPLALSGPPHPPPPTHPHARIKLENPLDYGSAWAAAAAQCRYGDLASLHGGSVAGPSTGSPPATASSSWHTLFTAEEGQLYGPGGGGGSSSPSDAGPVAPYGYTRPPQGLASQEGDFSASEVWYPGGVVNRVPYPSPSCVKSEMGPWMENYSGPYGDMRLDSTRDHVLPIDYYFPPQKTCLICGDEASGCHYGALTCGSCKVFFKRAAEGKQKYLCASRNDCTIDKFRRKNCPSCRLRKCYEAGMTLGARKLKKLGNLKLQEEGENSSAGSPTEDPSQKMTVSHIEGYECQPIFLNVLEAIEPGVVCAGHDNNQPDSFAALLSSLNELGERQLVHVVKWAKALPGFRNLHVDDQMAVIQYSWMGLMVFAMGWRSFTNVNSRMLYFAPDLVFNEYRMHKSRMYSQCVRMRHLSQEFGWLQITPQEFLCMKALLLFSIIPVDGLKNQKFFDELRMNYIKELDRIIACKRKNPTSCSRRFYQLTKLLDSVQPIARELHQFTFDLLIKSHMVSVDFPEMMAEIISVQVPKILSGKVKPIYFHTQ
Description: COS-7 Whole-Cell Androgen Receptor Binding Assay, Adenovirus Transduction. The following applies: for IC50: read-out: IC50.

[3] abbreviates: COS binding, 3000 nM unless otherwise noted.

These results are taken from US8394971B2, “Indole derivatives as selective androgen receptor modulators (SARMS)” (Janssen Pharmaceutica N.V., priority 2004, dated 2013).

A word on the % Inhibition: it is the relative decrease from the control value, in per cent. As a reminder, the IC50 is the concentration that gives 50% inhibition.

Like-named read-outs stand apart in the source and are kept apart here.

`CC(C)CSCC(C)(O)c1cc2cc([N+](=O)[O-])c(C(F)(F)F)cc2[nH]1` (racemic) [compound 170]: the “active / inactive (inhibition of testosterone-enhanced prostate weight)” value in experiment [1] was “active”. For the same molecule, the “% Inhibition” value in experiment [2] is 67%. Moreover, the IC50 in experiment [2] (COS binding) was > 3 µM.
Take `CSCCC(C)(O)c1cc2cc([N+](=O)[O-])c(C(F)(F)F)cc2[nH]1` (racemic) [compound 47]: the “active / inactive (inhibition of testosterone-enhanced prostate weight)” value in experiment [1] was “inactive”. In addition, in experiment [2], the “% Inhibition” value was determined as 78%. In addition, the IC50 in experiment [2] (COS binding) was > 1 µM.
`CC(O)(C[S+]([O-])Cc1ccccc1)c1cc2cc([N+](=O)[O-])c(C(F)(F)F)cc2[nH]1` (mixture of isomers) [compound 161]: the “active / inactive (inhibition of testosterone-enhanced prostate weight)” value in experiment [1] was “inactive”. Further, the “% Inhibition” value in experiment [2] (setting [3]) is 20%.
With `COc1ccc(SCC(C)(O)c2cc3cc(Cl)c(C(F)(F)F)cc3n2S(C)(=O)=O)cc1` (racemic) [compound 130], the “% Inhibition” value in experiment [2] (setting [3]) is −8%.
As for `COc1ccc(S(=O)(=O)CC(C)(O)c2cc3cc(Cl)c(C(F)(F)F)cc3[nH]2)cc1` (racemic) [compound 129], the “active / inactive (inhibition of testosterone-enhanced prostate weight)” value in experiment [1] was “inactive”. Besides, the “% Inhibition” value in experiment [2] (setting [3]) amounted to 10%.
